Where two headings read alike, the source gives them in different places.
Assays:
Aspergillus flavus = assay: Antifungal paper disk test, diameter of clear zone; type: cell-based; settings: for zone of inhibition at 100 µg/disc: read-out: Diameter (mm) of clear Zone A. flavus
Experimental: (§1) Sulfur compounds were tested for antifungal activity against pure cultures of Aspergillus niger and Aspergillus flavus supplied by Ward's Natural Science Ltd (St. Catharines, Ontario, Canada). They were maintained on Sabouraud Dextrose Agar.
(§2) For the test, 6 agar plugs (5 mm diameter) were cut from a 5-8 day old colony and homogenized in distilled, sterilized water (2 ml). A portion of this suspension (0.5 ml) was transferred aseptically to a Petri plate with Sabouraud Dextrose Agar (15 ml) and spread evenly over the entire surface. […] Each test compound was applied to the disks as a solution (50 mg compound/10 ml acetone). Control disks were treated with neat acetone (20 μl). Test plates with fungal homogenates and disks were incubated at 18-20° C. for 2 days. For each test four replicate plates were used. The diameter of the clear zone surrounding the disk was taken as the indicator of antifungal activity.

Aspergillus niger = assay: Antifungal paper disk test, diameter of clear zone; type: cell-based; settings: for zone of inhibition at 100 µg/disc: read-out: Diameter (mm) of clear Zone A. niger
Experimental: as §1, §2

KK leukemic cell line = assay: Fixed propidium iodide staining, flow cytometry; type: cell-based, human; settings: 48 h
Experimental: (§3) Adherent cell lines were plated at 35×10^4 cells/60 cm^2 dish the day before exposure to compound. Suspension cells were seeded at 25×10^4 cells/mL in a 6 well dish (Falcon) the day of exposure to compound. Mononucleated, T-cell depleted normal bone marrow cells were seeded at 50×10^4 cells/mL in a 6 well dish the day of exposure to compound. Cells were exposed to solvent control or approximate MTT50 and MTT30 concentrations of the compound. After 48 h of exposure to the compound, cells were harvested, fixed in 80% ethanol for 1 h on ice and labeled with 50 μg/mL propidium iodide (Sigma). Approximately 10^6 cells were analyzed using a XL-MCL flow cytometer (Coulter Corporation, Miami, Fla.) and a FACScalibar cytometer (Becton Dickinson, San Jose, Calif.). Profiles shown are a representative.
as §3, with “cm2” for “cm^2”, “concentrations.” for “concentrations of the compound.”, “representative. Cell viability counts and Pi staining were performed as previously described (Dimitroulakos, J, Nohynek, D, Backway, K L, Hedley, D W, Yeger, H, Freedman, M H, Minden, M D and Penn, L Z: Increased sensitivity of acute myeloid leukemias to lovastatin-induced apoptosis: A potential therapeutic approach. Blood 93: 1308-18, 1999).” for “representative.”

[1] = tested on: WI38 non-transformed diploid fibroblasts; assay: Fixed propidium iodide staining, flow cytometry; type: cell-based, human; settings: 48 h
Experimental: as §3
as §3, with “cm2” for “cm^2”, “concentrations.” for “concentrations of the compound.”, “representative. Cell viability counts and Pi staining were performed as previously described (Dimitroulakos, J, Nohynek, D, Backway, K L, Hedley, D W, Yeger, H, Freedman, M H, Minden, M D and Penn, L Z: Increased sensitivity of acute myeloid leukemias to lovastatin-induced apoptosis: A potential therapeutic approach. Blood 93: 1308-18, 1999).” for “representative.”

[2] = tested on: Aspergillus niger and Aspergillus flavus; assay: Antifungal activity; type: cell-based; settings: in words; dose not given
Experimental: as §1
For the test, 6 agar plugs (5 mm diameter) were cut from a 5-8 day old colony and homogenized in distilled, sterilized water (2 ml). A portion of this suspension (0.5 ml) was transferred aseptically to a Petri plate with Sabouraud Dextrose Agar (15 ml) and spread evenly over the entire surface. Each plate was supplied with four evenly spaced paper disks (7 mm, Whatman Number 1 filter paper) containing the test compound (0, 25, 50 and 100 μg respectively). Each test compound was applied to the disks as a solution (50 mg compound/10 ml acetone). Control disks were treated with neat acetone (20 μl). Test plates with fungal homogenates and disks were incubated at 18-20° C. for 2 days. For each test four replicate plates were used. The diameter of the clear zone surrounding the disk was taken as the indicator of antifungal activity.

leukemic cells = assay: Cell cycle and apoptosis by fixed PI and TUNEL; type: cell-based, human; settings: in words
Experimental: as §3
Adherent cell lines were plated at 35×10^4 cells/60 cm^2 dish the day before exposure to compound. Suspension cells were seeded at 25×10^4 cells/mL in a 6 well dish (Falcon) the day of exposure to compound. Mononucleated, T-cell depleted normal bone marrow cells were seeded at 50×10^4 cells/mL in a 6 well dish the day of exposure to compound. Cells were exposed to solvent control or approximate MTT50 and MTT30 concentrations of the compound. After 48 h of exposure to the compound, cells were harvested and fixed with a final concentration of 4% formaldehyde. Fixed cells were stored at −20° C. in 70% ethanol for no more than 5 days. Approximately 10^5 cells were pelleted and labeled with 0.02 mM Biotin-dUTP and 12.5 U TdT enzyme in a 1× reaction buffer (200 mM potassium cacodylate, 25 mM Tris-HCl, 25 μg/mL bovine serum albumin, pH 6.6), 2.5 mM CoCl2 and 0.01 mM dTTP (Roche Molecular Biochemicals, Laval, QC, Canada) for 45 min at 37° C. Samples were washed and incubated in 200 μL of 1:1000 fluorescein isothiocyanate (FITC)-conjugated avidin (Sigma) in 4×SSC, 5% skim milk powder and 0.05% Tween-20 (Sigma). Following 1 h of mixing at room temperature, the samples were washed and resuspended in 500 μL of D-PBS containing 2.5 μg/mL DNase-free RNase (Boehringer Mannheim) and 10 μg/mL PI. Following a 30 min incubation at room temperature, cells were analyzed using a XL-MCL flow cytometer (Coulter Corporation, Miami, Fla.) and a FACScalibar cytometer (Becton Dickinson, San Jose, Calif.). Profiles shown are representative of one experiment.

[3] = Aspergillus flavus, 100 μg/disk, acetone
[4] = Aspergillus niger, 100 μg/disk, acetone
[5] = dose 50 uM (229 ug/mL) as printed

In the case of `CSCSSC` [Compound N, 2,3,5-trithiahexane], the zone of inhibition at 100 µg/disc (Aspergillus flavus; Aspergillus flavus) is reported as 0 mm, the zone of inhibition at 100 µg/disc (Aspergillus niger; Aspergillus niger) is reported as 0 mm and the “% G2 increase (Fixed PI)” value (KK leukemic cell line; dose 50 uM) is reported as “+4%”. The “% pre-G1 (Fixed PI)” value (KK leukemic cell line; dose 50 uM) was 13%, the “% G2 increase (Fixed PI)” value (KK leukemic cell line; dose 150 uM) was “+5%” and the “% pre-G1 (Fixed PI)” value (KK leukemic cell line; dose 150 uM) was 10%. For the same compound, the “% G2 increase (Fixed PI)” value ([1]; dose 50 uM) was “+7%”, the “% pre-G1 (Fixed PI)” value ([1]; dose 50 uM) was 2% and the “% G2 increase (Fixed PI)” value ([1]; dose 150 uM) was “+25%”. For the same compound, the “% pre-G1 (Fixed PI)” value ([1]; dose 150 uM) was 4%.

In the case of `c1ccc(SSc2ccccc2)cc1` [D, diphenyl disulphide], the Antifungal activity [2] is reported as “do not possess antifungal activity”, the zone of inhibition at 100 µg/disc (Aspergillus flavus; [3]) is reported as 0 mm and the zone of inhibition at 100 µg/disc (Aspergillus niger; [4]) is reported as 0 mm. The “Cell cycle effect / apoptosis of leukemic cells (fixed PI and TUNEL)” value (from here on “Cell cycle effect / apoptosis”) (leukemic cells) was “undergo apoptosis in all the phases of the cell cycle” and the “% pre-G1 (Fixed PI)” value (KK leukemic cell line; dose 91.6 uM (20 ug/mL)) was 33.9%.

`COC(=O)CSSC` [H, methyl 3,4-dithiopentanoate] was tested, and the Antifungal activity [2] was “do not possess antifungal activity”, the “Diameter (mm) of clear Zone A. flavus” value (Aspergillus flavus; 100 μg/disk, acetone) was 0 mm and the “Diameter (mm) of clear Zone A. niger” value (Aspergillus niger; 100 μg/disk, acetone) was 0 mm. The “Cell cycle effect / apoptosis” value (leukemic cells) was “accumulation of leukemic cells in the G2/M phase of the cell cycle prior to the cells undergoing apoptosis”, the “% pre-G1 (Fixed PI)” value (KK leukemic cell line; dose 133.4 uM (20 ug/mL)) was 5.9% and the “% pre-G1 (Fixed PI)” value ([1]; dose 985 uM (150 ug/mL)) was 0.7%.

For `CCC(=O)OCSSc1ccccc1` [Compound Q, 1-phenyl-1,2-dithiapropyl propionate], the Antifungal activity [2] was “potent antifungal compound”, the zone of inhibition at 2.5 µg/disc (Aspergillus flavus; Aspergillus flavus, 2.5 μg/disk, acetone) was 2.3 mm and the zone of inhibition at 2.5 µg/disc (Aspergillus niger; Aspergillus niger, 2.5 μg/disk, acetone) was 3.5 mm. For the same compound, the “% pre-G1 (Fixed PI)” value (KK leukemic cell line; dose 20 uM) was 15%, the “% G2 increase (Fixed PI)” value (KK leukemic cell line; dose 40 uM) was −4% and the “% pre-G1 (Fixed PI)” value (KK leukemic cell line; dose 40 uM) was 43%. For the same compound, the “% G2 increase (Fixed PI)” value ([1]; dose 20 uM) was “+3%”, the “% pre-G1 (Fixed PI)” value ([1]; dose 20 uM) was 1% and the “% G2 increase (Fixed PI)” value ([1]; dose 40 uM) was “+10%”. For the same compound, the “% pre-G1 (Fixed PI)” value ([1]; dose 40 uM) was 1%.

With `CSSCC(=O)c1ccccc1` [Compound P, phenacyl methyl disulphide] the “% pre-G1 (Fixed PI)” value ([1]; dose 50 uM) was 2% and the “% pre-G1 (Fixed PI)” value ([1]; dose 150 uM) was 52%.

In the case of `CSCSCS(C)(=O)=O` [B], the Antifungal activity [2] is reported as “do not possess antiproliferative activity on either fungal or mammalian cells” and the “% pre-G1 (Fixed PI)” value (KK leukemic cell line; dose 107 uM (20 ug/mL)) is reported as 1.1%.

With `CSSc1ccc([N+](=O)[O-])cc1` [M, methyl p-nitrophenyl disulphide] the zone of inhibition at 10 µg/disc (Aspergillus flavus; Aspergillus flavus, 10 μg/disk, acetone) was 4 mm, the “Diameter (mm) of clear Zone A. niger” value (Aspergillus niger; 10 μg/disk, acetone, listed as p-CH3SS(C6H4)NO2) was 3.8 mm and the zone of inhibition at 10 µg/disc (Aspergillus niger; Aspergillus niger, 10 μg/disk, acetone) was 3.9 mm. The “% pre-G1 (Fixed PI)” value ([1]; dose 40 uM) was 16% and the “% pre-G1 (Fixed PI)” value ([1]; dose 120 uM as printed) was 119%.

For `CSSCCS(C)(=O)=O` [F, 2,3,6-trithiaheptane 6,6,-dioxide], the Antifungal activity [2] was “do not possess antifungal activity”, the “Diameter (mm) of clear Zone A. flavus” value (Aspergillus flavus; 100 μg/disk, acetone) was 0 mm and the “Diameter (mm) of clear Zone A. niger” value (Aspergillus niger; 100 μg/disk, acetone) was 0 mm. For the same compound, the “Cell cycle effect / apoptosis” value (leukemic cells) was “accumulation of leukemic cells in the G2/M phase of the cell cycle prior to the cells undergoing apoptosis”, the “% pre-G1 (Fixed PI)” value (KK leukemic cell line; dose 91.6 uM (20 ug/mL)) was 3.8% and the “% G2/M (Fixed PI)” value [1, 5] was 17.8%. For the same compound, the “% pre-G1 (Fixed PI)” value [1, 5] was 0.1%.

For `CSSCOC(C)=O` [I, 2,3-dithiabutyl acetate], the Antifungal activity [2] was “possess antifungal and anti-mammalian cell activity”, the zone of inhibition at 100 µg/disc (Aspergillus flavus; [3]) was 2.3 mm and the zone of inhibition at 100 µg/disc (Aspergillus niger; [4]) was 2.3 mm. The “Cell cycle effect / apoptosis” value (leukemic cells) was “undergo apoptosis in all the phases of the cell cycle” and the “% pre-G1 (Fixed PI)” value (KK leukemic cell line; dose 65.7 uM (10 ug/mL)) was 48.4%.

In the case of `CS(=O)(=O)CSCS(C)(=O)=O` [G, 2,4,6-trithiaheptane 2,2,6,6-tetraoxide], the Antifungal activity [2] is reported as “do not possess antiproliferative activity on either fungal or mammalian cells”, the zone of inhibition at 100 µg/disc (Aspergillus flavus; [3]) is reported as 0 mm and the zone of inhibition at 100 µg/disc (Aspergillus niger; [4]) is reported as 0 mm. For the same compound, the “% pre-G1 (Fixed PI)” value (KK leukemic cell line; dose 91.6 uM (20 ug/mL)) was 3.8%.

For `CSSCS(=O)(=O)c1ccc(C)cc1` [Compound C, α-p-toluenesulfonyl dimethyl disulphide], the Antifungal activity [2] was “possess antifungal and anti-mammalian cell activity”, the “Diameter (mm) of clear Zone A. flavus” value (Aspergillus flavus; 25 μg/disk, acetone) was 8.0 mm and the “Diameter (mm) of clear Zone A. niger” value (Aspergillus niger; 25 μg/disk, acetone) was 10.9 mm. For the same compound, the “Cell cycle effect / apoptosis” value (leukemic cells) was “undergo apoptosis in all the phases of the cell cycle” and the “% pre-G1 (Fixed PI)” value (KK leukemic cell line; dose 40.3 uM (20 ug/mL)) was 20.6%.

`CS(=O)(=O)CSSc1ccccc1` [E, 5-phenyl-2,4,5-trithiapentane 2,2-dioxide] was tested, and the Antifungal activity [2] was “possess antifungal and anti-mammalian cell activity”, the zone of inhibition at 25 µg/disc (Aspergillus flavus; Aspergillus flavus, 25 μg/disk, acetone) was 1.8 mm and the zone of inhibition at 25 µg/disc (Aspergillus niger; Aspergillus niger, 25 μg/disk, acetone) was 0.8 mm. The “Cell cycle effect / apoptosis” value (leukemic cells) was “undergo apoptosis in all the phases of the cell cycle” and the “% pre-G1 (Fixed PI)” value (KK leukemic cell line; dose 85.3 uM (20 ug/mL)) was 34.7%.

For `CS(C)(=O)=O` [Compound A, dimethyl sulfone], the Antifungal activity [2] was “do not possess antiproliferative activity on either fungal or mammalian cells”, the “Diameter (mm) of clear Zone A. flavus” value (Aspergillus flavus; 100 μg/disk, acetone) was 0 mm and the “Diameter (mm) of clear Zone A. niger” value (Aspergillus niger; 100 μg/disk, acetone) was 0 mm. For the same compound, the “% pre-G1 (Fixed PI)” value (KK leukemic cell line; dose 212 uM (20 ug/mL)) was 1.1%.
